Assay results as given in patent publication US20140350081A1, “INSECT G-COUPLED RECEPTORS USEFUL AS TARGETS FOR INSECTICIDES AND COMPOUNDS AND REAGENTS IDENTIFIED USING THE SAME” (priority 2011, published 2014).
Like-named read-outs stand apart in the source and are kept apart here.

Experiments:
[1] = molecular target: AaDOP1 (Aedes aegypti, UniProt H6D5H1); test: CRELuc reporter dose-response in HEK293 cells stably expressing AaDOP1; type: cell-based; conditions: for EC50: HEK293 cells stably expressing CRELuc reporter and AaDOP1
[2] = molecular target: T1, AaDOP2 (Aedes aegypti, UniProt H6D5H2); test: CRELuc reporter dose-response in HEK293 cells stably expressing AaDOP2; type: cell-based; conditions: for EC50: HEK293 cells stably expressing CRELuc reporter and AaDOP2, ≧10 μM = lacks intrinsic activity, read-out: EC50 values AaDOP2
[3] = molecular target: T2, Isdop1 (Ixodes scapularis, UniProt A0ACM8FJJ0); test: cAMP accumulation in HEK 293 cells transiently expressing Isdop1; type: cell-based; conditions: for intracellular cAMP compared to basal, Isdop1: 10 μM agonist, transient expression
[4] = molecular target: T3, Isdop2 (Ixodes scapularis, UniProt A0ACM8DGL0); test: cAMP accumulation in HEK 293 cells transiently expressing Isdop2; type: cell-based; conditions: for increase in cAMP, Isdop2: 10 μM agonist, transient expression
[5] = molecular target: T2, Isdop1; test: CRE-Luc reporter assay, HEK cells stably expressing Isdop1; type: cell-based
[6] = molecular target: T3, Isdop2; test: CRE-Luc reporter assay, HEK cells stably expressing Isdop2; type: cell-based
[7] = molecular target: T1, AaDOP2; test: AaDOP2 agonist screen against the LOPAC1280 library; type: cell-based; conditions: 10 μM compound; percent of response to 1 μM dihydrexidine
[8] = molecular target: T1, AaDOP2; test: LOPAC1280 antagonist screen in HEK-CRELuc-Aadop2 cells; type: cell-based; conditions: 10 μM compound, 300 nM dopamine, quadruplicate
[9] = molecular target: T1, AaDOP2; test: HTRF cAMP accumulation concentration response assay (Cisbio Dynamic 2); type: cell-based; conditions: AaDOP2 expressing cells in the presence of dopamine; No Inhibition = <10% inhibition at 3 μM test compound; read-out: IC50 ± S.E.M. (nM), HTRF cAMP assay
[10] = molecular target: T3, Isdop2; test: cell-based
[11] = molecular target: T2, Isdop1; test: cAMP accumulation confirmation assay, cells stably expressing Isdop1; type: cell-based
[12] = molecular target: T3, Isdop2; test: cAMP accumulation confirmation assay, cells stably expressing Isdop2; type: cell-based
[13] = tested on: Ae. aegypti L3 larvae; test: whole plant or invertebrate; conditions: Aedes aegypti
[14] = tested on: Ae. aegypti L3 larvae; test: Ae. aegypti L3 concentration response and time course assays; type: in vivo, Aedes aegypti
Description: Briefly, chemistries were diluted to appropriate concentration in water and added to the wells of 24-well plates containing 5 L3 stage Ae. aegypti larvae to achieve a final concentration of 400, 200, 100, 50 and 25 μM in 1 ml sterile RO water. Chemistries were tested in quadruplicate at each concentration. […] Results reported here represent a minimum of three independent CRC experiments (i.e., n=3).

[15] = tested on: adult male Blatella germanica; test: Cockroach contact assay (topical application); type: in vivo; conditions: 200 mM compound
Excerpt: (§1) A series of whole organism bioassays was developed to further evaluate the toxicity of chemistries to a range of agricultural, veterinary and public health pests and non-target insects (Tables 12 and 13). These assays are designed to rapidly explore the biological activity spectrum of chemistries as well as to facilitate initial investigations of the mode of action of insecticidal compounds. Briefly, assays were developed for the German cockroach (Blatella germanica, urban pest), termite (Reticulitermes flavipes; urban pest), lone star tick (Amblyomma americana; veterinary and public health pest), soybean aphid (Aphis glycines, agricultural pest) and honeybee (Apis mellifera; beneficial, non-target insect). The assays were designed to test the toxicity and speed of kill of multiple chemistries on contact. Each of these assays was performed as a single point dose experiment in triplicate using either topical application of compound to the ventral thorax ([…]; 50-80 μg effective dose depending on compound) as is the case for our cockroach and honeybee assays, or 10 second immersion in a solution of the compound diluted in water or DMSO:EtOH to a final concentration of 100 μM. The assays were conducted in 24-well plate format with mortality assessment following incubation at 22° C. as described above. Commercial insecticides were incorporated in these assays to provide a positive control and permit initial comparative analyses. Lead chemistries identified in our in vivo screen have been evaluated in the cockroach and termite assays.

[16] = tested on: adult Reticulitermes flavipes; test: Termite immersion assay; type: in vivo; conditions: in vivo
Excerpt: A series of whole organism bioassays was developed to further evaluate the toxicity of chemistries to a range of agricultural, veterinary and public health pests and non-target insects (Tables 12 and 13). These assays are designed to rapidly explore the biological activity spectrum of chemistries as well as to facilitate initial investigations of the mode of action of insecticidal compounds. Briefly, assays were developed for the German cockroach (Blatella germanica, urban pest), termite (Reticulitermes flavipes; urban pest), lone star tick (Amblyomma americana; veterinary and public health pest), soybean aphid (Aphis glycines, agricultural pest) and honeybee (Apis mellifera; beneficial, non-target insect). The assays were designed to test the toxicity and speed of kill of multiple chemistries on contact. Each of these assays was performed as a single point dose experiment in triplicate using either topical application of compound to the ventral thorax (1 μl of a […] compound solution in 1:1 v:v DMSO:EtOH vehicle; 50-80 μg effective dose depending on compound) as is the case for our cockroach and honeybee assays, or 10 second immersion in a solution of the compound diluted in water or DMSO:[…] The assays were conducted in 24-well plate format with mortality assessment following incubation at 22° C. as described above. Commercial insecticides were incorporated in these assays to provide a positive control and permit initial comparative analyses. Lead chemistries identified in our in vivo screen have been evaluated in the cockroach and termite assays.

[17] = tested on: adult male Blatella germanica; test: Cockroach assay of Table 16 (title contact assay, text feeding assay); type: in vivo; conditions: 200 mM compound
Excerpt: as §1

[18] = molecular target: T1, AaDOP2; conditions: read-out: Affinity (Aedesdop2); values equal the Table 3 IC50 values
[19] = tested on: Ae. aegypti L3 larvae; conditions: 400 μM, three independent experiments, listed as Cis-flupenthixol
[20] = 10 μM biogenic amine, 300 nM propranolol, cAMP accumulation, mean±standard error
[21] = 10 μM antagonist, 1 μM dopamine
[22] = 10 μM antagonist with 1 μM dopamine
[23] = 10 μM antagonist with 1 μM dopamine, relative to dopamine alone
[24] = read-out: % Inhibition (of response to dopamine), Isdop2 screen
[25] = 48 h, read-out: Toxicity to Aedes aegypti larvae (mortality) 48 hours, 400 μM, L3 larvae, three independent experiments
[26] = 72 h, read-out: Toxicity to Aedes aegypti larvae (mortality) 72 hours, 400 μM, L3 larvae, three independent experiments

T3 sequence (A0ACM8DGL0 entry or part of it): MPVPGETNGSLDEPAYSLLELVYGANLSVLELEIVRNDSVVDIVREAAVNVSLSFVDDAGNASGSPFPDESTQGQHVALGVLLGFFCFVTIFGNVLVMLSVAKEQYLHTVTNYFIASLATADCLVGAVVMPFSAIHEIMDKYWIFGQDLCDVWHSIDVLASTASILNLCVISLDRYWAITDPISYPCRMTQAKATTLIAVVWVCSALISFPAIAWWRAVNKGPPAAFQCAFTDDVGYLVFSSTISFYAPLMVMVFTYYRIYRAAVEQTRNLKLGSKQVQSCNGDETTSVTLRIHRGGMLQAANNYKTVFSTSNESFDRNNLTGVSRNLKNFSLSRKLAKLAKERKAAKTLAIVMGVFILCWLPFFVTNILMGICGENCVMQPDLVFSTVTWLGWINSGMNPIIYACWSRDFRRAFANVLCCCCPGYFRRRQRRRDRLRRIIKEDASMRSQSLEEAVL
AaDOP1, sequence (H6D5H1 entry or part of it): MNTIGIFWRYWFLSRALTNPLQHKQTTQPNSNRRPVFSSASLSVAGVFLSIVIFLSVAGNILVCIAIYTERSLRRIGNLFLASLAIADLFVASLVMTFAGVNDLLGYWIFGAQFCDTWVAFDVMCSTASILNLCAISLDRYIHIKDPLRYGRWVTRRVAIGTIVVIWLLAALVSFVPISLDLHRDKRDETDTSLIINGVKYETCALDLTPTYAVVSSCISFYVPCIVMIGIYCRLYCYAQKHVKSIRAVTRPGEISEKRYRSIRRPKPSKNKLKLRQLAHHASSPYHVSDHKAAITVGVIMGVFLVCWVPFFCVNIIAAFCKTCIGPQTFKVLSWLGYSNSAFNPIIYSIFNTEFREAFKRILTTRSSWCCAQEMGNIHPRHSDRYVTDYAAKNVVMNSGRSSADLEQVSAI
T1 sequence (H6D5H2 entry or part of it): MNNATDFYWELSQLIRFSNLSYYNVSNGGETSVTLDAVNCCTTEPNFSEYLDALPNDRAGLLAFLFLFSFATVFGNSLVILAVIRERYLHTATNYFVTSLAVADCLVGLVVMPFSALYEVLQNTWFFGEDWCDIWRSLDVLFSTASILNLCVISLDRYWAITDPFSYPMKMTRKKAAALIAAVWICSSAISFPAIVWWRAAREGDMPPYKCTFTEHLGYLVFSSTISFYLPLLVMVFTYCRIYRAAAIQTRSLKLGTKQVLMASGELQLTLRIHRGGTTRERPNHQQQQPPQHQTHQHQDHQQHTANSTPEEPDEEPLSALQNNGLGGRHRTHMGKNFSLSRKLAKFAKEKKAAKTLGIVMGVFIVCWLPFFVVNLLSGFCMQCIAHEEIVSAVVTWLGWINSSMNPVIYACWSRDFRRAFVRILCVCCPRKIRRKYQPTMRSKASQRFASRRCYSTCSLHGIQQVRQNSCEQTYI

NC[C@H](O)c1ccc(O)c(O)c1 [Norepinephrine]
EC50 [1]: 760 ± 180 nM
behaviour at the AaDOP2 receptor in follow up CRCs ([2]; HEK 293-CRELuc cells, FIG. 21A): partial agonists
Stimulatory response (fold-over-basal) Isdop1 [3, 20]: 1.46 ± 0.10 fold-over-basal
Stimulatory response (fold-over-basal) Isdop2 [4, 20]: 2.43 ± 0.65 fold-over-basal
EC50 [5]: 2200 ± 300 nM
EC50 [6]: 4300 ± 1300 nM
% of DHX [7]: 86%

CN1CCc2cc(Cl)c(O)cc2C(c2ccccc2)C1 (stereo not shown) [SCH23390, 8-chloro-3-methyl-5-phenyl-1,2,4,5-tetrahydro-3-benzazepin-7-ol]
inhibition of dopamine-mediated stimulation of AaDOP1 [1, 21]: robustly inhibited
inhibition of dopamine-mediated stimulation of AaDOP2 [2, 21]: robustly inhibited
% of the SCH23390 effect [8]: 83%
IC50 [9]: 1300 nM
effect on dopamine-stimulated cAMP, Isdop1 [3, 22]: significant reduction in levels of intracellular cAMP
effect on dopamine-stimulated cAMP, Isdop2 [4, 22]: antagonistic effects
inhibition of luciferase activity Isdop1 [5, 23]: 74%
effect on constitutive activity of Isdop1 ([5]; antagonist alone, CRE-Luc): inhibition of the constitutive activity of Isdop1 was observed
inhibition of luciferase activity Isdop2 [6, 23]: 69%
inhibition at 10 µM [10, 24]: 77%
inhibition at 10 µM ([10]; read-out: average inhibitory effect of antagonist control across all sixteen plates): 86 ± 6%
IC50 [11]: 57 nM
IC50 [12]: 120 nM
mortality at 400 µM ([13]; 24 h, read-out: Toxicity to Aedes aegypti larvae (mortality) 24 hours, 400 μM, L3 larvae, three independent experiments): 3%
mortality at 400 µM [13, 25]: 23%
mortality at 400 µM [13, 26]: 47%

Oc1cc2c(cc1O)C(c1ccccc1)CNCC2 (stereo not shown) [SKF 38393]
EC50 [1]: 310 ± 46 nM
EC50 [2]: ≥ 10000 nM
intracellular cAMP compared to basal, Isdop1 [3]: modest, yet significant increases
increase in cAMP, Isdop2 [4]: ca. two-fold-over-basal
% of DHX [7]: < 10%

Oc1cc2c(c(Cl)c1O)CCNCC2c1ccccc1 (stereo not shown) [SKF 81297]
EC50 [1]: 24 ± 7 nM
EC50 [2]: ≥ 10000 nM
intracellular cAMP compared to basal, Isdop1 [3]: modest, yet significant increases
increase in cAMP, Isdop2 [4]: ca. two-fold-over-basal
% of DHX [7]: 38%

OCCN1CCN(CC/C=C2/c3ccccc3Sc3ccc(C(F)(F)F)cc32)CC1 [cis-(Z)-Flupenthixol, ((Z)-2-(4-(3-(2-(trifluoromethyl)-9H-thioxanthen-9-ylidene)propyl)piperazin-1-yl)ethanol)]
% of the SCH23390 effect [8]: 88%
IC50 [9]: 0.35 ± 0.07 nM
LT50 ([14]; 400 μM, L3 larval time course assay): 54 min
LC50 ([14]; Aedes aegypti): 88000 nM
% Mortality 24 hrs [15]: 10%
% Mortality 48 hrs [15]: 10%
% Mortality 72 hrs [15]: 10%
% Mortality 120 hrs [15]: 20%
% Mortality 240 hrs [15]: 20%
mortality of adult termites [16]: 70-100%
% Mortality 24 hrs [17]: 3%
% Mortality 48 hrs [17]: 10%
% Mortality 72 hrs [17]: 10%
% Mortality 120 hrs [17]: 20%
inhibition at 10 µM [10, 24]: 92%
IC50 [11]: 3700 nM
IC50 [12]: 870 nM
IC50 [18]: 20 nM
Toxicity to Aedes aegypti larvae (mortality) 24 hours [19]: 100%
mortality at 400 µM ([13]; 0.5 h, read-out: percent mortality 0.5 hr, 400 uM, L3 larvae, value for this scoring time): 10%
mortality at 400 µM ([13]; 1 h, read-out: percent mortality 1 hr, 400 uM, L3 larvae, per scoring time): 30%
mortality at 400 µM ([13]; 2 h, read-out: percent mortality 2 hr, 400 uM, L3 larvae, per scoring time): 10%
mortality at 400 µM ([13]; 3 h, read-out: mortality within three hours, 400 μM, L3 larvae): > 70%
mortality at 400 µM ([13]; 3 h, read-out: percent mortality 3 hr, 400 uM, L3 larvae, per scoring time): 10%
mortality at 400 µM ([13]; 4 h, read-out: percent mortality 4 hr, 400 uM, L3 larvae, per scoring time): 0%
mortality at 400 µM ([13]; 24 h, read-out: percent mortality 24 hr, 400 uM, L3 larvae, per scoring time): 0%
mortality at 400 µM [13, 25]: 100%
mortality at 400 µM ([13]; 48 h, read-out: percent mortality 48 hr, 400 uM, L3 larvae, per scoring time): 0%
mortality at 400 µM ([13]; 72 h, read-out: Cumulative % Mortality (72 hrs), 400 uM, L3 larvae): 100%
mortality at 400 µM [13, 26]: 100%
mortality at 400 µM ([13]; 72 h, read-out: percent mortality 72 hr, 400 uM, L3 larvae, per scoring time): 0%
